These are literature values, as cited in patent US11470860B2, “Animal feeds containing specific glycolipids” (PATHWAY INTERMEDIATES LIMITED, priority 2016, dated 2022).

The conditions of the data set: for stability versus pH: aqueous medium.

As to `CC(CCCCCC/C=C\CCCCCCCC(=O)O)OC1OC(CO)C(O)C(O)C1OC1OC(CO)C(O)C(O)C1O` (stereo not drawn) [Acidic sophorolipids], the “stability versus pH” value is recorded as “instability at pH higher than 7.0”. Under “dependence on pH”, the “solubility in aqueous medium” value is reported as “not readily soluble in aqueous medium at acidic pH but become soluble at higher pH”.

Turning to `CC1CCCCCC/C=C\CCCCCCCC(=O)OC2C(CO)OC(OC3C(O1)OC(CO)C(O)C3O)C(O)C2O` (stereo not drawn) [lactonised sophorolipids], the “stability versus pH” value was “stable across a wider pH range”.
